Columns and labels:
TGF-beta receptor type-1 = molecular target: T1, TGF-beta receptor type-1 (Homo sapiens, UniProt P36897); test: Inhibition of TGF-beta1 signaling in human HEK293 cells transfected with luciferase and FAST-2 gene expression vector A3-LUX after 16 hrs by luciferase reporter gene assay; format: cell-based
T1 sequence (P36897 whole entry): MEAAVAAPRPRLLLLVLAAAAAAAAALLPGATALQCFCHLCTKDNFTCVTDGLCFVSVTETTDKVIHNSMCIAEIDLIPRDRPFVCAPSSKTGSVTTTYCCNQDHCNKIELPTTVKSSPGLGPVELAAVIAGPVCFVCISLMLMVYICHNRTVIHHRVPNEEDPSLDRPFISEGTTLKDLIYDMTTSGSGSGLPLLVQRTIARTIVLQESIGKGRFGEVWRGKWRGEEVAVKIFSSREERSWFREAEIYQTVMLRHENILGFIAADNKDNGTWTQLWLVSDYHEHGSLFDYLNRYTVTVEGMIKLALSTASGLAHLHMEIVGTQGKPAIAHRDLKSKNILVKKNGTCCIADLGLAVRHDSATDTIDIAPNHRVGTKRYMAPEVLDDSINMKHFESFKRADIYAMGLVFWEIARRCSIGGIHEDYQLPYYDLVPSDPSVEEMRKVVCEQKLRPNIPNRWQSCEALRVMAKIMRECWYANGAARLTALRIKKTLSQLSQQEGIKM

Activin receptor type-1B = molecular target: T2, Activin receptor type-1B (Homo sapiens, UniProt P36896); test: Inhibition of Activin A in human HEK293 cells transfected with luciferase and FAST-2 gene expression vector A3-LUX after 16 hrs by luciferase reporter gene assay; format: cell-based
T2 sequence (P36896 whole entry): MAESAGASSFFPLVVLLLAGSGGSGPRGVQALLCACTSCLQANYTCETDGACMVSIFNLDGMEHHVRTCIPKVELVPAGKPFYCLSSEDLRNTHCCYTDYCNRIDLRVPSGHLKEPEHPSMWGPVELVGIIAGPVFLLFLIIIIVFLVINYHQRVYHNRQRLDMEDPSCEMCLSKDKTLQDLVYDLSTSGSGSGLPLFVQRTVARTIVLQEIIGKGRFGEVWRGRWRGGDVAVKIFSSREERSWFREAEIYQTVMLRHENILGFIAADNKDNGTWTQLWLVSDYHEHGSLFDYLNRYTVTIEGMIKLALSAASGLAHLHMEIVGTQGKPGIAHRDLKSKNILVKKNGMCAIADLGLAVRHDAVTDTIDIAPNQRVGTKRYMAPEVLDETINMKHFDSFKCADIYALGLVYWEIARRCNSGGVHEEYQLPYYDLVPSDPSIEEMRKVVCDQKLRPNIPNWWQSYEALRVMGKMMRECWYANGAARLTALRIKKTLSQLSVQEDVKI

| Compound | IC50 (TGF-beta receptor type-1) [nM] | IC50 (Activin receptor type-1B) [nM] |
| --- | --- | --- |
| c1ccc(-c2n[nH]cc2-c2ccnc(-n3ccnc3)c2)nc1 | 88 |  |
| CN(C)CCCOc1ccc(-c2cc(-c3c[nH]nc3-c3ccccn3)ccn2)cn1 | 11 |  |
| O=C(NC1CCOCC1)c1ccc(-c2cc(-c3c[nH]nc3-c3ccccn3)ccn2)cc1 |  | > 1000 |
| CN(C)CCOc1ccc(-c2cc(-c3c[nH]nc3-c3ccccn3)ccn2)cc1 | 19 |  |

More lines, in order of falling IC50 (TGF-beta receptor type-1), values ahead:

| IC50 (TGF-beta receptor type-1) [nM] | IC50 (Activin receptor type-1B) [nM] | Compound |
| --- | --- | --- |
| 77 |  | c1ccc(-c2n[nH]cc2-c2ccnc(-n3cccn3)c2)nc1 |
| 68 |  | Cn1cc(-c2cc(-c3c[nH]nc3-c3ccccn3)ccn2)cn1 |
| 32 |  | CN1CCN(c2ccc(-c3cc(-c4c[nH]nc4-c4ccccn4)ccn3)cn2)CC1 |
